Literature values, collected in patent publication US20200003795A1, “DETERMINATION OF ANALYTES IN LIQUID SAMPLES BY MASS SPECTROMETRY” (Quest Diagnostics Investments Incorporated, priority 2001, published 2020).
Where two headings read alike, the source gives them in different places.

Columns and labels:
[1] = circulating drug, at a therapeutic level of 1-10 μg/mL
[2] = not given; remark: listed apart in the source

Compound	bound to protein [1]	therapeutic level (circulating)	half-life (multiple doses)	half-life (single dose)	Therapeutic levels in blood ([2]; blood, trough)	mean-time-to-peak concentration ([2]; on administration)
Nc1nnc(-c2cccc(Cl)c2Cl)c(N)n1 [lamotrigine, 6-(2,3-dichlorophenyl)-1,2,4-triazine-3,5-diamine]	about 55%	1 to 10 µg/mL	7.5 to 23.1 h	6.4 to 30.4 h	–	–
CO[C@H]1C[C@@H]2CC[C@@H](C)[C@@](O)(O2)C(=O)C(=O)N2CCCC[C@H]2C(=O)O[C@H]([C@H](C)C[C@@H]2CC[C@@H](O)[C@H](OC)C2)CC(=O)[C@H](C)/C=C(\C)[C@@H](O)[C@@H](OC)C(=O)[C@H](C)C[C@H](C)/C=C/C=C/C=C/1C [sirolimus]	–	–	–	–	3 to 18 ng/mL	1 to 2 h
